Experiment [1] relates to BaF3. Nature of the experiment: Proliferation of BaF3 cells, CCK8 cell viability assay. The format is cell-based. The conditions noted are these: Mus musculus, 72 hours. An excerpt: (§1) In this example the following cells were used: […] (purchased from ATCC), mouse P210-BaF3 (stably expressing BCR-ABL mutant activated kinase), mouse P210/T315I-BaF3 (stably expressing BCR-ABL/T315I mutant activated kinase), mouse FLT3-ITD-BaF3 (stably expressing FLT3/ITD mutant activated kinase), mouse TEL-FLT3-BaF3 (stably expressing FLT3 kinase), mouse TEL-cKIT-BaF3 (stably expressing cKIT kinase), mouse BaF3-tel/T670I-cKit (stably expressing cKIT/T670I mutant activated kinase), mouse Tel-VEGFR2-BaF3 (stably expressing VEGFR2 kinase), mouse Tel-PDGFRα-BaF3 (stably expressing PDGFRα kinase), mouse Tel-PDGFRβ-BaF3 (stably expressing PDGFRβ kinase), mouse Tel-RET-BaF3 (stably expressing RET kinase). The above cell lines were all constructed by our laboratory according to the following method: the kinase region sequences of human P210, P210/T315I, FLT3/ITD, FLT3, cKIT, cKIT/T670I, VEGFR2, PDGFRα, PDGFRβ, RET were respectively amplified by PCR, and inserted into MSCV-Puro vectors having N-terminal TEL or TPR fragments (Clontech). The vectors were stably transfected into mouse BaF3 cells by means of retrovirus, and the growth factor IL-3 were removed, eventually obtaining cell lines that depend on transferred protein P210, P210/T315I, FLT3/ITD, FLT3, cKIT, cKIT/T670I, VEGFR2, PDGFRα, PDGFRβ, or RET.
(§2) GI50 (unit: μM) was calculated by quantifying the number of living cells based on quantitative measurement of reductive dehydrogenase in living cells with CCK8 cell viability assay kit (Bestbio, China).

Experiment [2] relates to P210-BaF3. As to the kind of experiment: Proliferation of P210-BaF3 cells, CCK8 cell viability assay. The experiment is classed as cell-based. The conditions noted are these: Mus musculus, 72 hours, stably expressing BCR-ABL mutant activated kinase.
Text: as §1, §2

Experiment [3] relates to P210/T315I-BaF3. Nature of the experiment: Proliferation of P210/T315I-BaF3 cells, CCK8 cell viability assay. The experiment is classed as cell-based. The following applies: Mus musculus, 72 hours, stably expressing BCR-ABL/T315I.
Text: as §1, §2

Experiment [4] has as its system Tel-cKit-BaF3. As to the kind of experiment: Proliferation of Tel-cKit-BaF3 cells, CCK8 cell viability assay. The format is cell-based, mouse. The conditions noted are these: Mus musculus; 72 hours, CCK8; stably expressing cKIT kinase.
Text: as §1, §2

Experiment [5] has as its system Tel-cKit/T670I-BaF3. Nature of the experiment: Proliferation of Tel-cKit/T670I-BaF3 cells, CCK8 cell viability assay. The format is cell-based. The following applies: Mus musculus, 72 hours, stably expressing cKIT/T670I.
Text: as §1, §2
On the technique in general: Tetrazolium dyes change colour on reduction, which living cells bring about.

In experiment [6] the test system is Tel-FLT3-BaF3. Nature of the experiment: Proliferation of Tel-FLT3-BaF3 cells, CCK8 cell viability assay. The format is cell-based. The following applies: Mus musculus, 72 hours, stably expressing FLT3 kinase.
Text: as §1, §2

The subject of experiment [7] is FLT3-ITD-BaF3. As to the kind of experiment: Proliferation of FLT3-ITD-BaF3 cells, CCK8 cell viability assay. The format is cell-based. The following applies: Mus musculus, 72 hours, stably expressing FLT3/ITD.
Text: as §1, §2

For experiment [8], the system named is TEL-PDGFRα-BaF3. As to the kind of experiment: Proliferation of TEL-PDGFRα-BaF3 cells, CCK8 cell viability assay. The experiment is classed as cell-based. The conditions noted are these: Mus musculus, 72 hours, stably expressing PDGFRα kinase.
Text: as §1, §2

Experiment [9] has as its system TEL-PDGFRβ-BaF3. Nature of the experiment: Proliferation of TEL-PDGFRβ-BaF3 cells, CCK8 cell viability assay. The following applies: Mus musculus, 72 hours, stably expressing PDGFRβ kinase. The format is cell-based.
Text: as §1, §2

Experiment [10] deals with TEL-VEGFR2-BaF3. As to the kind of experiment: Proliferation of TEL-VEGFR2-BaF3 cells, CCK8 cell viability assay. The following applies: Mus musculus, 72 hours, stably expressing VEGFR2 kinase. The experiment is classed as cell-based.
Text: as §1, §2

For `CC(=O)Nc1cc(Oc2ccc(NC(=O)Cc3ccc(C(C)(C)C)cc3)cc2)ncn1` [Example 65, N-[4-(6-acetylamino-pyrimidin-4-yloxy)-phenyl]-2-(4-tert-butyl-phenyl)-acetamide], the GI50 in experiment [1] is more than 10 µM; in [2], more than 10 µM; in experiment [3], more than 10 µM; in experiment [4], 376 nM; in [5], 1070 nM; in [6] it was 612 nM. Besides, the GI50 in experiment [7] came out at 24 nM; in experiment [8] it was 12 nM; in [9], 84 nM; in experiment [10], 277 nM.
For `CCC(=O)NCCNc1cc(Nc2ccc(CC(=O)Nc3ccc(C)c(C(F)(F)F)c3)cc2)ncn1` [Example 139, N-[2-(6-{4-[(4-methyl-3-trifluoromethyl-phenylcarbamoyl)-methyl]-phenylamino}-pyrimidin-4-ylamino)-ethyl]-propanamide], the GI50 is more than 10 µM in experiment [1]; more than 10 µM in experiment [2]; 9.8 µM in experiment [3]; more than 10000 nM in [4]; 9980 nM in [5]; 1000 nM in experiment [6]. Further, the GI50 was 432 nM in experiment [7], 319 nM in experiment [8], 34 nM in experiment [9] and 8910 nM in experiment [10].
Regarding `Cc1ccc(NC(=O)Cc2ccc(Nc3cc(NCCN)ncn3)cc2)cc1C(F)(F)F` [Example 138, 2-{4-[6-(2-amino-ethylamino)-pyrimidin-4-ylamino]-phenyl}-N-(4-methyl-3-trifluoromethyl-phenyl)-acetamide], the GI50 in [1] is more than 10 µM; in [2], more than 10 µM; in experiment [3], more than 10 µM; in experiment [4], 2600 nM; in experiment [5], 377 nM; in [6] it was 34 nM. The GI50 in experiment [7] worked out at 14 nM; in [8], 17 nM; in experiment [9] it was 79 nM; in experiment [10], 711 nM.
Consider `Cc1ccc(NC(=O)Cc2ccc(Oc3cc(NCCN)ncn3)cc2)cc1C(F)(F)F` [Example 137, 2-(4-((6-((2-aminoethyl)amino)pyrimidin-4-yl)oxy)phenyl)-N-(4-methyl-3-(trifluoromethyl)phenyl)acetamide], for which the GI50 in experiment [1] was more than 10 µM; in experiment [2], more than 10 µM; in experiment [3] it was 9.93 µM; in experiment [4], 465 nM; in experiment [5] it was 323 nM; in [6], 40 nM. In addition, the GI50 in experiment [7] came to 12 nM; in experiment [8] it was 11 nM; in experiment [9], 34 nM; in experiment [10] it was 149 nM.
`CC(=O)Nc1cc(Sc2ccc(NC(=O)Cc3ccccc3C(F)(F)F)cc2)ncn1` [Example 67, N-[4-(6-acetylamino-pyrimidin-4-ylsulfanyl)-phenyl]-2-(2-trifluoromethyl-phenyl)-acetamide]: the GI50 was more than 10 µM in experiment [1]; 8.08 µM in experiment [2]; 9.79 µM in experiment [3]; 6170 nM in [4]; more than 10000 nM in [5]; 1470 nM in experiment [6]. The GI50 amounted to 291 nM in [7], 14 nM in [8], 312 nM in [9] and 7820 nM in [10].
As for `COc1cc(CC(=O)Nc2ccc(Oc3cc(NC(C)=O)ncn3)cc2)cc(OC)c1OC` [Example 62, N-[4-(6-acetylamino-pyrimidin-4-yloxy)-phenyl]-2-(3,4,5-trimethoxy-phenyl)-acetamide], the GI50 in experiment [1] is more than 10 µM; in experiment [2], more than 10 µM; in experiment [3], more than 10 µM; in experiment [4], 810 nM; in experiment [5], 6580 nM; in experiment [6] it was 390 nM. In addition, the GI50 in experiment [7] came out at 50 nM; in experiment [8], 45 nM; in [9] it was 231 nM; in experiment [10] it was 1180 nM.
As to `C=CC(=O)NCCNc1cc(Nc2ccc(CC(=O)Nc3ccc(C)c(C(F)(F)F)c3)cc2)ncn1` [Example 140, N-[2-(6-{4-[(4-methyl-3-trifluoromethyl-phenylcarbamoyl)-methyl]-phenylamino}-pyrimidin-4-ylamino)-ethyl]-acrylamide], the GI50 in [1] was more than 10 µM; in experiment [2], more than 10 µM; in experiment [3], 9.61 µM; in experiment [4], more than 10000 nM; in experiment [5] it was more than 10000 nM; in experiment [6], 1110 nM. Moreover, the GI50 in [7] came out at 377 nM; in [8], 131 nM; in [9] it was 170 nM; in [10] it was 9670 nM.
`CC(=O)Nc1cc(Oc2ccc(NC(=O)Cc3ccc(F)c(F)c3)cc2)ncn1` [Example 168, N-[4-(6-acetylamino-pyrimidin-4-yloxy)-phenyl]-2-(3,4-difluoro-phenyl)-acetamide]: the GI50 is more than 10 µM in experiment [1]; more than 10 µM in [2]; more than 10 µM in experiment [3]; 2690 nM in [4]; 4230 nM in experiment [5]; 99 nM in experiment [6]. For the same molecule, the results for the GI50 in experiment [7], in [8] and in [9] were 42 nM, 6 nM and 33 nM, respectively.
Consider `CC(=O)Nc1cc(Oc2ccc(NC(=O)Cc3ccc(C)c(C)c3)cc2)ncn1` [Example 60, N-[4-(6-acetylamino-pyrimidin-4-yloxy)-phenyl]-2-(3,4-dimethyl-phenyl)-acetamide], for which the GI50 in experiment [1] is more than 10 µM; in [2], more than 10 µM; in [3] it was more than 10 µM; in experiment [4] it was 917 nM; in [5] it was 1880 nM; in experiment [6], 195 nM. The GI50 was determined as 14 nM in experiment [7], 11 nM in experiment [8], 26 nM in experiment [9] and 433 nM in experiment [10].
With `Cc1ccc(NC(=O)Nc2ccc(Oc3cc(NCC(N)=O)ncn3)cc2)cc1C(F)(F)F` [Example 142, 2-(6-{4-[3-(4-methyl-3-trifluoromethyl-phenyl)-ureido]-phenoxy}-pyrimidin-4-ylamino)-acetamide], the GI50 in experiment [1] is more than 10 µM; in [2] it was more than 10 µM; in experiment [3], more than 10 µM; in experiment [4] it was 736 nM; in experiment [5] it was 1840 nM; in experiment [6] it was 162 nM. For the same molecule, the GI50 in [7] is 54 nM; in experiment [8], 7 nM; in experiment [9], 8 nM; in [10] it was 9670 nM.
As to `CC(=O)Nc1cc(Oc2ccc(NC(=O)Cc3ccccc3C)cc2)ncn1` [Example 161, N-[4-(6-acetylamino-pyrimidin-4-yloxy)-phenyl]-2-(2-methyl-phenyl)-acetamide], the GI50 in experiment [1] was more than 10 µM; in experiment [2] it was more than 10 µM; in experiment [3] it was more than 10 µM; in [4], 7010 nM; in experiment [5], more than 10000 nM; in [6], 228 nM. Moreover, the values for the GI50 in experiment [7], in [8] and in [9] were 74 nM, 24 nM and 116 nM, respectively.
With `CC(=O)Nc1cc(Nc2ccc(NC(=O)Cc3cccc(C(F)(F)F)c3)cc2)ncn1` [Example 165, N-[4-(6-acetylamino-pyrimidin-4-ylamino)-phenyl]-2-(3-trifluoromethyl-phenyl)-acetamide], the GI50 in experiment [1] was more than 10 µM; in experiment [2], more than 10 µM; in experiment [3] it was more than 10 µM; in [4], 462 nM; in experiment [5], 4610 nM; in experiment [6], 52 nM. The GI50 in [7] was found to be 21 nM; in [8], 1 nM; in experiment [9], 12 nM.
On to `CC(=O)Nc1cc(Oc2ccc(NC(=O)Cc3ccc4ccccc4c3)cc2)ncn1` [Example 162, N-[4-(6-acetylamino-pyrimidin-4-yloxy)-phenyl]-2-naphth-2-yl-acetamide], for which the GI50 is more than 10 µM in experiment [1]; more than 10 µM in experiment [2]; more than 10 µM in experiment [3]; 313 nM in experiment [4]; 915 nM in experiment [5]; 113 nM in experiment [6]. The GI50 in [7] stood at 19 nM; in experiment [8], 4 nM; in [9], 6 nM.

By GI50 is commonly meant the concentration at which growth is held to half of that of the control.

For the origin of these results see US11602534B2, “Pyrimidine derivative kinase inhibitors” (HEFEI INSTITUTES OF PHYSICAL SCIENCE, CHINESE ACADEMY OF …, priority 2017, dated 2023).
